Measured values as given in patent publication US9238639B2, “Aromatic ring compound” (TAKEDA PHARMACEUTICAL COMPANY LIMITED, priority 2012, dated 2016).

Biological target: T1, human GOAT (Homo sapiens, UniProt Q96T53)
T1 construct: made in house; host or cells: Sf9 insect cells (BacToBac baculovirus, pFastBac1 vector); microsome fraction
T1 sequence (Q96T53 1-435): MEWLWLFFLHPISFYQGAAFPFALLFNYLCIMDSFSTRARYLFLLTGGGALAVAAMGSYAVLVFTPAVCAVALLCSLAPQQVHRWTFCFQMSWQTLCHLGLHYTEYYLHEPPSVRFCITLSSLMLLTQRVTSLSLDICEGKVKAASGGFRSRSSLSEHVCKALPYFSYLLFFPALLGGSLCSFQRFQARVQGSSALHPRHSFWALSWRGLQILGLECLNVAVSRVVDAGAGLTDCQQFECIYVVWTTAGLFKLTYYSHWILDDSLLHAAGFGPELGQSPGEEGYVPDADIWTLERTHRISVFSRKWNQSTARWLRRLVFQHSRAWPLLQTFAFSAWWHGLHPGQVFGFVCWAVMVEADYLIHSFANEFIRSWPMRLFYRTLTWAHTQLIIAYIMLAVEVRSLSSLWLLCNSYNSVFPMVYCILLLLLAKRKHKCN
Test: GOAT enzyme activity measurement by HTRF method (human GOAT-expressing microsome fraction)
Assay type: biochemical
Settings: 10 μM compound; human GOAT-expressing Sf9 microsome fraction; octanoyl-CoA and Ghrelin-biotin substrates; 0% control without compound, 100% control without enzyme
Description: Human GOAT (Accession NO: EU518495) cDNA was amplified by PCR including reaction of (1) 98° C., 1 min, (2) 35 repeats of 98° C., 10 sec·65° C., 15 sec·72° C., 80 sec, and (3) 72° C., 5 min, using human stomach cDNA library (Takara Bio) as a template and Pyrobest DNA Polymerase (Takara Bio). The amplified fragment was treated with restriction enzymes, inserted into Stu I/Not I sites of pFastBacl (Invitrogen) by using Ligation High (TOYOBO), and transfected into ECOS JM109 (Nippon Gene) to construct pFB/hGOAT.
Production of Baculovirus and Preparation of Insect Cell Microsome Fraction
For preparation of baculovirus from pFB/hGOAT, BacToBac baculovirus expression system (Invitrogen) was used. The virus titer was measured by Real-Time PCR using SYBR Green (Takara Bio). Sf9 cells were infected with the obtained baculovirus at Multiplicity of Infection (MOI)=0.2, and cultured for 70 hr. The Sf9 cells were recovered, suspended in a suspension buffer (TBS (0.3 M NaCl), 1 mM DTT, 1 mM EDTA, Complete (Roche) (1 tablet/50 mL)), and the cells were disrupted twice on ice at 20000 rpm, 30 sec using a polytron homogenizer. The cell disruption solution was centrifuged at 1000 rpm for 10 min at 4° C., the supernatant was further ultracentrifuged at 40000 rpm for 30 min at 4° C. and the precipitate was recovered. The obtained precipitate was suspended in the suspension buffer used above to give a human GOAT-expressing microsome fraction. The protein level was measured using BCA Protein assay Reagent (PIERCE).
Enzyme Activity Measurement by HTRF Method
A compound solution (2 μL) diluted with an assay buffer containing 50 mM Tris-HCl (pH 7.5), 0.5% TWEEN20, and Complete to 15% DMSO and 90 μg/mL human GOAT-expressing microsome fraction (2 μL) were incubated at room temperature for 20 min, after which a substrate mixed solution (2 μL) containing 30 μM octanoyl-CoA (CHEM-IMPLEX) and 3 μM Ghrelin-biotin ([…]epsilon aminocaproic acid-biotin (Greiner Coutom synthesis)) was added to 384 white small volume plate (Greiner). After reaction for 20 min, 2 μL of citrate buffer (pH3) (mixed solution of 0.1 M citric acid (39.8 mL) and 0.2 M Na2HPO4 (10.2 mL)), 2 μL of 25 nM anti-active ghrelin antibody (produced in mouse), 5 μL of Eu(K)-Anti Mouse IgG Pab (Cis Bio) 100-fold diluted with HTRF detection buffer (Cis Bio) and 5 μL of streptavidin-Xlent (Cis Bio) 66.6-fold diluted with HTRF detection buffer (Cis Bio) were added. After incubation at room temperature for 1 hr or longer, the fluorescence values at 620 nm and 665 nm were measured by Envision (PerkinElmer). The data was calculated [(665 nm signal/620 nm signal)×10^4], and the inhibitory activity against human GOAT was shown by the data where 0% control was without compound, and 100% control was without enzyme.

| Compound | inhibition at 10 µM [%] |
| --- | --- |
| Cc1nc(C(F)(F)F)ccc1COc1cc(Cl)c2c(CC(=O)O)csc2c1 [Example 16, (4-Chloro-6-((2-methyl-6-(trifluoromethyl)pyridin-3-yl)methoxy)-1-benzothiophen-3-yl)acetic acid] | 101 |
| O=C(O)C[C@@H]1COc2cc(OCc3ccc(Cl)cc3Cl)ccc21 [Example 262, ((3S)-6-((2,4-Dichlorobenzyl)oxy)-2,3-dihydro-1-benzofuran-3-yl)acetic acid] | 93 |
| COC(=O)Cc1csc2c(F)c(OCc3cc(C(F)(F)F)nn3C)cc(C)c12 [Example 33, Methyl(7-fluoro-4-methyl-6-((1-methyl-3-(trifluoromethyl)-1H-pyrazol-5-yl)methoxy)-1-benzothiophen-3-yl)acetate] | 96.1 |
| Cn1nc(C(F)(F)F)cc1COc1ccc2c(CC(=O)O)csc2c1 [Example 18, (6-((1-Methyl-3-(trifluoromethyl)-1H-pyrazol-5-yl)methoxy)-1-benzothiophen-3-yl)acetic acid] | 98.2 |
| Cn1nc(C(F)(F)F)cc1COc1cc(Cl)c2c(CC(=O)O)csc2c1 [Example 22, (4-Chloro-6-((1-methyl-3-(trifluoromethyl)-1H-pyrazol-5-yl)methoxy)-1-benzothiophen-3-yl)acetic acid] | 105 |
| Cc1ccc(/C=C/c2ccc3c(CC(=O)O)csc3c2)c(C)n1 [Example 183, (6-((E)-2-(2,6-dimethylpyridin-3-yl)vinyl)-1-benzothiophen-3-yl)acetic acid] | 83.1 |
| Cc1sc2cc(OCc3cc(C(F)(F)F)nn3C)cc(Cl)c2c1CC(=O)O [Example 307, (4-Chloro-2-methyl-6-((1-methyl-3-(trifluoromethyl)-1H-pyrazol-5-yl)methoxy)-1-benzothiophen-3-yl)acetic acid] | 106 |
| COC(=O)Cc1coc2c(C)c(OCc3ccc(Cl)cc3Cl)cc(C)c12 [Example 45, Methyl(6-((2,4-dichlorobenzyl)oxy)-4,7-dimethyl-1-benzofuran-3-yl)acetate] | 68.7 |
| Cc1nc(C(F)(F)F)ccc1COc1cc(Cl)c2c(CC(=O)O)csc2c1Cl [Example 30, (4,7-Dichloro-6-((2-methyl-6-(trifluoromethyl)pyridin-3-yl)methoxy)-1-benzothiophen-3-yl)acetic acid] | 106 |
| COC(=O)Cc1csc2cc(OCc3ccc(C(F)(F)F)nc3C)cc(Cl)c12 [Example 15, Methyl(4-chloro-6-((2-methyl-6-(trifluoromethyl)pyridin-3-yl)methoxy)-1-benzothiophen-3-yl)acetate] | 91.6 |
| O=C(O)CC1CS(=O)(=O)c2cc(OCc3ccc(Cl)cc3Cl)ccc21 (centres unmarked) [Example 52, (6-((2,4-Dichlorobenzyl)oxy)-1,1-dioxido-2,3-dihydro-1-benzothiophen-3-yl)acetic acid] | 79 |
| COC(=O)Cc1csc2cc(OCc3cc(C(F)(F)F)nn3C)cc(Cl)c12 [Example 21, Methyl(4-chloro-6-((1-methyl-3-(trifluoromethyl)-1H-pyrazol-5-yl)methoxy)-1-benzothiophen-3-yl)acetate] | 100 |
| Cc1cc(OCc2cc(C(F)(F)F)nn2C)c(F)c2scc(CC(=O)O)c12 [Example 34, (7-Fluoro-4-methyl-6-((1-methyl-3-(trifluoromethyl)-1H-pyrazol-5-yl)methoxy)-1-benzothiophen-3-yl)acetic acid] | 104 |
| Cc1nc(C(F)(F)F)ccc1COc1cc(C)c2c(CC(=O)O)csc2c1F [Example 36, (7-Fluoro-4-methyl-6-((2-methyl-6-(trifluoromethyl)pyridin-3-yl)methoxy)-1-benzothiophen-3-yl)acetic acid] | 106 |
| O=C(O)Cc1csc2cc(OCc3ccc(Cl)cc3Cl)ccc12 [Example 2, (6-((2,4-Dichlorobenzyl)oxy)-1-benzothiophen-3-yl)acetic acid] | 99.2 |
| COC(=O)Cc1csc2cc(OCc3ccc(C(F)(F)F)nc3C)cc(C)c12 [Example 9, Methyl(4-methyl-6-((2-methyl-6-(trifluoromethyl)pyridin-3-yl)methoxy)-1-benzothiophen-3-yl)acetate] | 93.8 |
| CCOC(=O)Cc1csc2cc(OCc3ccc(Cl)cc3Cl)ccc12 [Example 1, Ethyl(6-((2,4-dichlorobenzyl)oxy)-1-benzothiophen-3-yl)acetate] | 69 |
| COC(=O)[C@H](CO)NC(=O)Cc1csc2cc(OCc3ccc(Cl)cc3Cl)ccc12 [Example 54, Methyl N-((6-((2,4-dichlorobenzyl)oxy)-1-benzothiophen-3-yl)acetyl)serinate] | 86 |
| Cc1ccc(CCc2ccc3c(CC(=O)O)csc3c2)c(C)n1 [Example 182, (6-(2-(2,6-Dimethylpyridin-3-yl)ethyl)-1-benzothiophen-3-yl)acetic acid] | 97.3 |
| Cn1nc(C(F)(F)F)cc1COc1cc(Cl)c2c(CC(=O)O)csc2c1F [Example 38, (4-Chloro-7-fluoro-6-((1-methyl-3-(trifluoromethyl)-1H-pyrazol-5-yl)methoxy)-1-benzothiophen-3-yl)acetic acid] | 107 |
| Cc1ccc(COc2cc(C)c3c(CC(=O)O)coc3c2C)c(C)n1 [Example 44, (6-((2,6-Dimethylpyridin-3-yl)methoxy)-4,7-dimethyl-1-benzofuran-3-yl)acetic acid] | 102 |
| O=C(O)Cc1csc2cc(SCc3ccc(Cl)cc3Cl)ccc12 [Example 80, (6-((2,4-Dichlorobenzyl)sulfanyl)-1-benzothiophen-3-yl)acetic acid] | 99.3 |
| Cc1nc(C(F)(F)F)ccc1COc1cc(Cl)c2c(CC(=O)O)c(C)sc2c1 [Example 309, (4-Chloro-2-methyl-6-((2-methyl-6-(trifluoromethyl)pyridin-3-yl)methoxy)-1-benzothiophen-3-yl)acetic acid] | 103 |
| COC(=O)Cc1csc2c(F)c(OCc3ccc(C(F)(F)F)nc3C)cc(C)c12 [Example 35, Methyl(7-fluoro-4-methyl-6-((2-methyl-6-(trifluoromethyl)pyridin-3-yl)methoxy)-1-benzothiophen-3-yl)acetate] | 94 |
| CCS(=O)(=O)NC(=O)Cc1csc2cc(OCc3ccc(Cl)cc3Cl)ccc12 [Example 138, 2-(6-((2,4-Dichlorobenzyl)oxy)-1-benzothiophen-3-yl)-N-(ethylsulfonyl)acetamide] | 83.2 |
| COC(=O)Cc1csc2cc(OCc3cc(C)nn3C)cc(Cl)c12 [Example 25, Methyl(4-chloro-6-((1,3-dimethyl-1H-pyrazol-5-yl)methoxy)-1-benzothiophen-3-yl)acetate] | 97.4 |
| Cc1cc(COc2cc(Cl)c3c(CC(=O)O)csc3c2)n(C)n1 [Example 26, (4-Chloro-6-((1,3-dimethyl-1H-pyrazol-5-yl)methoxy)-1-benzothiophen-3-yl)acetic acid] | 105 |
| O=C(O)C1(CO)COc2cc(OCc3ccc(Cl)cc3Cl)ccc21 (centres unmarked) [Example 279, 6-((2,4-Dichlorobenzyl)oxy)-3-(hydroxymethyl)-2,3-dihydro-1-benzofuran-3-carboxylic acid] | 81 |
| Cc1nc(C(F)(F)F)ccc1COc1ccc2c(CC(=O)O)csc2c1 [Example 135, (6-((2-Methyl-6-(trifluoromethyl)pyridin-3-yl)methoxy)-1-benzothiophen-3-yl)acetic acid] | 93.1 |
